IC50 and anti-tumor activity data for three compounds are collected here from patent US9796725B2, “Pyrazolopyrimidinyl inhibitors of ubiquitin-activating enzyme” (Millennium Pharmaceuticals, Inc., priority 2012, dated 2017).

The structures appear in SMILES notation. A value given as a limit tells only on which side of the number the result lay.

As a reminder, the IC50 is the point on the concentration scale where inhibition reaches its midpoint.

The target in one experiment is recombinant human UAE (Homo sapiens (Human), UniProt P22314). Put plainly: Ubiquitin Activating Enzyme (UAE) HTRF Assay. For orientation: In TR-FRET formats the signal depends on donor and acceptor labels being close together.
Experiment [1] concerns mouse acute myeloid leukemia (AML model). As to conditions: cited from earlier work.

recombinant human UAE, sequence (P22314 whole entry): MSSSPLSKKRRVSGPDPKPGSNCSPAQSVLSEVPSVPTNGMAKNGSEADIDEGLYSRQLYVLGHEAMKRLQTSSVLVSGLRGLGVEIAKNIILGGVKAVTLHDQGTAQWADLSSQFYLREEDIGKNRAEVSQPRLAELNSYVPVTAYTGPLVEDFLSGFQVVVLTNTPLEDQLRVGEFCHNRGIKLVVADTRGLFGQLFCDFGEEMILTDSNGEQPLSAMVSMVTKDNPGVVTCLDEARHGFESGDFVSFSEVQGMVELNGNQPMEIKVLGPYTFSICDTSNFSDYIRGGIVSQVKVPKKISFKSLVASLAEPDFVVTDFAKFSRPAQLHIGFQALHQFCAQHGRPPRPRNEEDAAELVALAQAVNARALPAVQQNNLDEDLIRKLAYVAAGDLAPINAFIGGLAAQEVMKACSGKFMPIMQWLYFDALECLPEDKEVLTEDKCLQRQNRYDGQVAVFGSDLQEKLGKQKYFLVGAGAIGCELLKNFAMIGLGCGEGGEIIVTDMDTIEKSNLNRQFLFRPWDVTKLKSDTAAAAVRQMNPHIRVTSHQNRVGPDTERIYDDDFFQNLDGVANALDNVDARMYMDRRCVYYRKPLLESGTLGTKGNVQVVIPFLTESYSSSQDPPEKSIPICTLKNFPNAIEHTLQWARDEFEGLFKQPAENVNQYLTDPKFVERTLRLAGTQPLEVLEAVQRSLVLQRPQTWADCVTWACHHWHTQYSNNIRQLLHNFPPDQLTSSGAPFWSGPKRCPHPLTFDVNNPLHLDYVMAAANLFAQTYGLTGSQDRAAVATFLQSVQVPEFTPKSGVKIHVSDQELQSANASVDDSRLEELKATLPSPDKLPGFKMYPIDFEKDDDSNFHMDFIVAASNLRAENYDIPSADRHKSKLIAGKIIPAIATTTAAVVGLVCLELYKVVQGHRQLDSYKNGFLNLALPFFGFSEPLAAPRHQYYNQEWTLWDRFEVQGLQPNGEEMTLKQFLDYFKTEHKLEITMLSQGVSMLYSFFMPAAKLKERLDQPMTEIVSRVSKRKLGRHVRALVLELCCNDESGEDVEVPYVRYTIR
Method for recombinant human UAE: After incubation for 120 minutes, quantification of the FRET is performed on the Pherostar (BMG).
For compounds whose values are marked with an asterisk (*), mouse UAE was used. For all other compounds, human UAE was used.

Take `COc1ccc(C(C)(C)C)cc1-c1cc2nccc(N[C@@H]3C[C@H](COS(N)(=O)=O)[C@@H](O)[C@H]3O)n2n1` (racemic) [Compound I-063, (rac)-((1R,2R,3S,4R)-4-{[2-(5-tert-butyl-2-methoxyphenyl)pyrazolo[1,5-a]pyrimidin-7-yl]amino}-2,3-dihydroxycyclopentyl)methyl rel-sulfamate]: the IC50 at recombinant human UAE is below 10 nM.

Take `NS(=O)(=O)OC[C@H]1C[C@@H](Nc2ccnc3cc(-c4cccc5cc(C(=O)O)ccc45)nn23)[C@H](O)[C@@H]1O` (relative stereo) [Compound I-099, (rac)-rel-5-[7-({(1R,2S,3R,4R)-2,3-dihydroxy-4-[(sulfamoyloxy)methyl]cyclopentyl}amino)pyrazolo[1,5-a]pyrimidin-2-y1]-2-naphthoic acid]: the IC50 at recombinant human UAE was below 10 nM.

Consider `O=C1NN(c2ccc(F)c(Cl)c2)C(=O)/C1=C\c1ccc([N+](=O)[O-])o1` [PYZD-4409], for which, in experiment [1], the anti-tumor activity entry is reported as “demonstrated anti-tumor activity”.
